Series [1] is described as follows: penetration through excized rodent (mice) skin, Franz' diffusion cells. It is filed as in vitro ADME. Conditions: galanthamine, mice skin in vitro; addition of the acid as penetration enhancer. How it is done: 150 g 52.8% (w/w) active substance-containing adhesive solution result which is spread on an aluminized and siliconized polyethylene sheet by means of a 350 μm coating knife. After the solvents have been removed by drying for 30 min. up to 60° C., the adhesive film is covered with a polyester sheet (15 μm). An area of 16 cm^2 is punched by means of a suitable cutting tool and the edges are separated off. The release relating to both this and the other examples is listed in the table; the list indicates both the controlled release into a physiological saline and through excized rodent skin.
The in-vitro-release was determined in a shaking water bath at 37° C. The acceptor medium was 100 ml physiological saline which was completely changed after 2, 4 and 8 hours. The concentration was determined by HPLC after 2, 4, and 8 and 24 hours. The penetration through mice skin was measured by means of Franz' diffusion cells.

A further series deals with cholinesterase. Conditions: cited from earlier work.
The conditions of series [2]: vs physostigmine or neostigmine; cited from earlier work.

`CCCCCCCC(=O)O` [octanoic acid]: in series [1], the “penetration rate increase by addition of acid” value (“penetration rate increase” below) was 1.5 factor. For the molecule `COc1ccc2c3c1OC1CC(O)C=CC31CCN(C)C2` (centres unmarked) [galanthamine, 4a,5,9,10,11,12-hexahydro-3-methoxy-11-methyl-6H-benzofuro (3a,3,2-ef) (2) benzazepin-6-ol], the “cholinesterase inhibition (in words)” value in the series on cholinesterase (pharmacological properties) was “reversibly acting cholinesterase inhibitors”. In addition, the “cholinesterase inhibiting-action, relative to the dosage” value with cholinesterase (vs physostigmine or neostigmine) is listed as “slightly lower”. Also, in series [2], the therapeutic range entry is “three to six times broader” and the “toxicity (in words)” value is given as “not as toxic as physostigmine or neostigmine”. As for `CC(C)CCCCCCCCCCCCCCC(=O)O` [isostearic acid], the “penetration rate increase” value in series [1] stood at 1.5 factor.

`CCCCCCCC/C=C\CCCCCCCC(=O)O` [oleic acid]: in series [1], the “penetration rate increase” value is 1.5 factor. For `C=CCCCCCCCCC(=O)O` [undecenoic acid], the “penetration rate increase” value in series [1] is listed as 1.5 factor.

Values taken from US5700480A, “Transdermal therapeutic system comprising galanthamine as active component” (priority 1993, dated 1997).
